Results: patent US20250296971A1, “GASTRIC INHIBITORY PEPTIDE RECEPTOR LIGANDS” (priority 2021, published 2025)
Read-outs that look alike come from different tables or passages of the source. *1 amine or outer side, *2 acyl side, *3 side chain or, on linkers, in order; H or OH if unused. Where a SMILES comes first, the peptide text is derived from it. Bridges are numbered along the chain shown (N, C = ends). Side-chain parts run from the residue outwards. [ ]: non-standard residue; d: D form. The star is where a group is joined. NH(1-deoxy-D-glucityl) = OC[C@@H](O)[C@@H](O)[C@H](O)[C@@H](O)CN*; DOTA = O=C(O)CN1CCN(CC(=O)O)CCN(CC(=O)*)CCN(CC(=O)O)CC1; Trp(5-Cl) = N[C@@H](Cc1c[nH]c2ccc(Cl)cc12)C(=O)O; Pyridine(2,6-diCH2) = c1cc(C[*:1])nc(C[*:2])c1; mXylylene = c1cc(C[*:1])cc(C[*:2])c1; Glutaryl = O=C(CCCC(=O)[*:2])[*:1]; Hyp = O=C(O)[C@@H]1C[C@@H](O)CN1; X1 = O=C(CN1CCC(N[*:1])CC1)[*:2]; Api = NC1(C(=O)O)CCNCC1

Assays:
[1] = target: T1, GIPR (CHO-K1-hGIPR cells) (Homo sapiens, UniProt P48546); assay: FACS binding assay
T1 construct: host or cells: CHO-K1
T1 sequence (P48546 22-466): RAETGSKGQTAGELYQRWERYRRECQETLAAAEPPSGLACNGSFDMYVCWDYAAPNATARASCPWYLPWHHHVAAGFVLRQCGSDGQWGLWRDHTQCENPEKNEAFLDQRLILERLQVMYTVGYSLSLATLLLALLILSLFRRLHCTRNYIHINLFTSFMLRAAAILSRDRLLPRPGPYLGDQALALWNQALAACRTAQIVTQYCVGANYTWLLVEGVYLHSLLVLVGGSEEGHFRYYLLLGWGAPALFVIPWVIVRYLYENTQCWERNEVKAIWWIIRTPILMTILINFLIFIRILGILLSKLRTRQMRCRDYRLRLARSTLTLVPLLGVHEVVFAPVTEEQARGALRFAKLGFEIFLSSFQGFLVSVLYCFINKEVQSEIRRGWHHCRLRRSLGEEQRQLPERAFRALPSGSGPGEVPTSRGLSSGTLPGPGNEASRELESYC
How it was run: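 Steps: detach CHO-K1-hGIPR cells (Accutase); wash in PBS/1% FCS; adjust to 500.000 cells per mL; wash ice-cold; incubate APC-streptavidin 1 μg/mL, 30 min on ice; wash twice; acquire on flow cytometer; fit MFI-concentration data with a four-parameter logistic model.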

[2] = Plasma stability assay, human plasma; type: in vitro ADME; conditions: 37° C., % intact compound remaining after 4 h or 24 h
Experimental: (§1) In order to determine the stability of selected compounds of the invention in human and mouse plasma, a plasma stability assay was carried out. Such plasma stability assay measures degradation of compounds of the present invention in blood plasma. This is an important characteristic of a compound as compounds, with the exception of pro-drugs, which rapidly degrade in plasma, generally show poor in vivo efficacy. […] The stability is sufficient for the diagnostic, therapeutic and theragnostic use of these compounds according to the present invention.
(§2) The plasma stability samples were prepared by spiking 50 μL plasma aliquots (all K2EDTA) with 1 μL of a 0.5 mM compound stock solution in DMS0. After vortexing the samples were incubated in a Thermomixer at 37° C. for 0, 4 and 24 hours. After incubation the samples were stored on ice until further treatment. All samples were prepared in duplicates.
(§3) A suitable internal standard was added to each sample (1 μL of a 0.5 mM stock solution in DMSO). Protein precipitation was performed by addition of 250 μL of acetonitrile containing 1% trifluoroacetic acid. After incubation at room temperature for 30 min the precipitate was separated by centrifugation and 150 μL of the supernatant was diluted with 150 μL of 1% aqueous formic acid.
(§4) Additionally, recovery was determined by spiking a pure plasma sample that only contained the internal standard after treatment with a certain amount of the compound.
(§5) Carry-over was evaluated by analysis of a blank sample (20% acetonitrile) after the highest calibration sample.

[3] = Plasma stability assay, mouse plasma; type: in vitro ADME; conditions: 37° C., % intact compound remaining after 4 h or 24 h
Experimental: as §1, §2, §3, §4, §5

[4] = target: Recombinant soluble human NEP (Homo sapiens, UniProt P08473); assay: Proteolytic stability assay against NEP; conditions: NEP 100 ng/mL, compound 10 μM, 37° C., % intact compound remaining
[5] = competition with 20 nM GIP-057, 4° C., 1 hour, read-out: pIC50 Category (converted)
[6] = competition with 20 nM GIP-057, 4° C. for 1 hour, read-out: pIC50 Category (converted)

Sequence of Recombinant soluble human NEP (P08473 52-750 limits assumed): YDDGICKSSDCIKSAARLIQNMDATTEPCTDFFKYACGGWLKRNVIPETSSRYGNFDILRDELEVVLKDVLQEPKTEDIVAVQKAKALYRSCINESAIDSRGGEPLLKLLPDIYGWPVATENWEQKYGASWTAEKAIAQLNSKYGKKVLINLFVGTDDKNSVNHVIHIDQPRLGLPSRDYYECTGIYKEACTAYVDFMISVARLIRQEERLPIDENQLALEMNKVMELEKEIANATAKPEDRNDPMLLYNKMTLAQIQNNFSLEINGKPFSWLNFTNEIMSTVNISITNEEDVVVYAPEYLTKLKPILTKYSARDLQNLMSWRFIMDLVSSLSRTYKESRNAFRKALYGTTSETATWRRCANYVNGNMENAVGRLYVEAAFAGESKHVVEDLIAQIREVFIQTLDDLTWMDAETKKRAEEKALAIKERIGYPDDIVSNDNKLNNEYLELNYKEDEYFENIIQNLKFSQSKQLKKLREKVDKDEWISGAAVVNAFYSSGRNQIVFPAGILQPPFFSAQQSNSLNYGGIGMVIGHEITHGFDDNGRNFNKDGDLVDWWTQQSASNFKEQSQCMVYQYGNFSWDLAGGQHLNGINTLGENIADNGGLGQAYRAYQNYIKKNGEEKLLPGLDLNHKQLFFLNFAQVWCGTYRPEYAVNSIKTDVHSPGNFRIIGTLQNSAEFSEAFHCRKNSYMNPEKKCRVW

IC50 [1, 5] [nM] | Human plasma stability category [2] | Mouse plasma stability category [3] | IC50 [1, 6] [nM] | SMILES | NEP stability category [4] | IC50 ([1]; pIC50 Category, competition with 20 nM GIP-057, 4° C., 1 hour) [nM]
 | B (>80% intact after 4 hours) | D (<50% intact after 4 hours) | 10 to 79.4 | CC[C@H](C)[C@@H]1NC(=O)[C@H](CC(C)C)NC(=O)[C@@H](C)NC(=O)[C@@H](NC(=O)[C@H](CC(C)C)NC(=O)[C@H](CCC(=O)O)NC(=O)[C@@H]2CCCN2C(=O)[C@H](Cc2c[nH]c3ccccc23)NC(=O)[C@H](Cc2c[nH]c3ccccc23)NC(=O)[C@H](CC(=O)O)NC(=O)[C@H](Cc2ccc(O)cc2)NC(=O)[C@@H](N)CCSC)CSCc2cccc(c2)CSC[C@@H](C(N)=O)NC1=O [GIP-248] (H-MYDWWPELC[dA]LIC-NH2; linker 9-13 via mXylylene) |  | 
 | B (>80% intact after 4 hours) | B (>80% intact after 4 hours) | 10 to 79.4 | CC[C@H](C)[C@@H]1NC(=O)[C@H](CC(C)C)NC(=O)[C@H](C)NC(=O)[C@@H](NC(=O)[C@H](CC(C)C)NC(=O)[C@H](CCC(=O)O)NC(=O)[C@@H]2CCCN2C(=O)[C@H](Cc2c[nH]c3ccccc23)NC(=O)[C@H](Cc2c[nH]c3ccccc23)NC(=O)[C@H](CC(=O)O)NC(=O)[C@@H](Cc2ccc(O)cc2)NC(=O)[C@@H](N)CCSC)CSCc2cccc(c2)CSC[C@@H](C(N)=O)NC1=O [GIP-246, H-Met-tyr-Asp-Trp-Trp-Pro-Glu-Leu-[Cys(3MeBn)-Ala-Leu-Ile-Cys]-NH2] (H-M[dY]DWWPELCALIC-NH2; linker 9-13 via mXylylene) |  | 
 | C (≥50% intact after 4 hours) | D (<50% intact after 4 hours) | 10 to 79.4 | CC[C@H](C)[C@@H]1NC(=O)[C@H](CC(C)C)NC(=O)[C@H](C)NC(=O)[C@@H](NC(=O)[C@@H](CC(C)C)NC(=O)[C@H](CCC(=O)O)NC(=O)[C@@H]2CCCN2C(=O)[C@H](Cc2c[nH]c3ccccc23)NC(=O)[C@H](Cc2c[nH]c3ccccc23)NC(=O)[C@H](CC(=O)O)NC(=O)[C@H](Cc2ccc(O)cc2)NC(=O)[C@@H](N)CCSC)CSCc2cccc(c2)CSC[C@@H](C(N)=O)NC1=O [GIP-247, H-Met-Tyr-Asp-Trp-Trp-Pro-Glu-leu-[Cys(3MeBn)-Ala-Leu-Ile-Cys]-NH2] (H-MYDWWPE[dL]CALIC-NH2; linker 9-13 via mXylylene) |  | 

Further lines, the compound ahead of its results:

SMILES | IC50 [1, 5] [nM] | Human plasma stability category [2] | Mouse plasma stability category [3] | IC50 [1, 6] [nM] | NEP stability category [4] | IC50 ([1]; pIC50 Category, competition with 20 nM GIP-057, 4° C., 1 hour) [nM]
CC[C@H](C)[C@@H]1NC(=O)[C@H](CC(C)C)NC(=O)[C@H](C)NC(=O)[C@@H](NC(=O)[C@H](CC(C)C)NC(=O)[C@H](CCC(=O)O)NC(=O)[C@@H]2CCCN2C(=O)[C@H](Cc2c[nH]c3ccccc23)NC(=O)[C@H](Cc2c[nH]c3ccccc23)NC(=O)[C@H](CC(=O)O)NC(=O)[C@H](Cc2ccc(O)cc2)NC(C)=O)CSCc2cccc(c2)CSC[C@@H](C(N)=O)NC1=O [GIP-240, Ac-Tyr-Asp-Trp-Trp-Pro-Glu-Leu-[Cys(3MeBn)-Ala-Leu-Ile-Cys]-NH2] (Ac-YDWWPELCALIC-NH2; linker 8-12 via mXylylene) | 10 to 79.4 | B (>80% intact after 4 hours) | B (>80% intact after 4 hours) |  |  | 
CC[C@H](C)[C@@H]1NC(=O)[C@H](CC(C)C)NC(=O)[C@H](C)NC(=O)[C@@H](NC(=O)[C@H](CC(C)C)NC(=O)[C@@H](CCC(=O)O)NC(=O)[C@@H]2CCCN2C(=O)[C@H](Cc2c[nH]c3ccccc23)NC(=O)[C@H](Cc2c[nH]c3ccccc23)NC(=O)[C@H](CC(=O)O)NC(=O)[C@H](Cc2ccc(O)cc2)NC(=O)[C@@H](N)CCSC)CSCc2cccc(c2)CSC[C@@H](C(N)=O)NC1=O [GIP-245, H-Met-Tyr-Asp-Trp-Trp-Pro-glu-Leu-[Cys(3MeBn)-Ala-Leu-Ile-Cys]-NH2] (H-MYDWWP[dE]LCALIC-NH2; linker 9-13 via mXylylene) |  | B (>80% intact after 4 hours) | D (<50% intact after 4 hours) | 10 to 79.4 |  | 
CC[C@H](C)[C@@H]1NC(=O)[C@H](CC(C)C)NC(=O)C2(CCN(C(=O)CCCC(=O)NC[C@H](O)[C@@H](O)[C@H](O)[C@H](O)CO)CC2)NC(=O)[C@@H](NC(=O)[C@@H](CC(C)C)NC(=O)[C@H](CCC(=O)O)NC(=O)[C@@H]2C[C@@H](O)CN2C(=O)[C@H](Cc2c[nH]c3ccc(Cl)cc23)NC(=O)[C@H](Cc2c[nH]c3ccccc23)NC(=O)[C@H](CC(=O)O)NC(=O)CN2CCC(NC(=O)[C@@H](CCC(=O)NC[C@H](O)[C@@H](O)[C@H](O)[C@H](O)CO)NC(=O)CN3CCN(CC(=O)O)CCN(CC(=O)O)CCN(CC(=O)O)CC3)CC2)CSCc2cccc(n2)CSC[C@@H](C(=O)NC2CCN(CC(=O)N[C@H](CCC(=O)NC[C@H](O)[C@@H](O)[C@H](O)[C@H](O)CO)C(N)=O)CC2)NC1=O [GIP-003, DOTA-glu(AGLU)-APAc-Asp-Trp-5Clw-Hyp-Glu-leu-[Cys(2Lut)-Apc(AGLU-Glutar)-Leu-Ile-Cys]-APAc-glu(AGLU)-NH2] ({DOTA}-[dE](NH(1-deoxy-D-glucityl))[X1]DW[Trp(5-Cl)][Hyp]E[dL]C[Api]([Glutaryl-NH(1-deoxy-D-glucityl)])LIC[X1][dE](NH(1-deoxy-D-glucityl))-NH2; linker 9-13 via Pyridine(2,6-diCH2)) | < 10 |  |  |  | A (>80% intact after 24 hours) | 
CC[C@H](C)[C@@H]1NC(=O)[C@H](CC(C)C)NC(=O)[C@H](CCC(N)=O)NC(=O)[C@@H](NC(=O)[C@H](CC(C)C)NC(=O)[C@H](CCC(=O)O)NC(=O)[C@@H]2CCCN2C(=O)[C@H](Cc2c[nH]c3ccccc23)NC(=O)[C@H](Cc2c[nH]c3ccccc23)NC(=O)[C@H](CC(=O)O)NC(=O)[C@H](Cc2ccc(O)cc2)NC(=O)[C@@H](N)CCSC)CSCc2cccc(c2)CSC[C@@H](C(N)=O)NC1=O [GIP-241] (H-MYDWWPELCQLIC-NH2; linker 9-13 via mXylylene) | 10 to 79.4 | B (>80% intact after 4 hours) | C (≥50% intact after 4 hours) |  |  | 
CC[C@H](C)[C@@H]1NC(=O)[C@H](CC(C)C)NC(=O)[C@H]([C@@H](C)O)NC(=O)[C@@H](NC(=O)[C@H](CC(C)C)NC(=O)[C@H](CCC(=O)O)NC(=O)[C@@H]2CCCN2C(=O)[C@H](Cc2c[nH]c3ccccc23)NC(=O)[C@H](Cc2c[nH]c3ccccc23)NC(=O)[C@H](CC(=O)O)NC(=O)[C@H](Cc2ccc(O)cc2)NC(=O)[C@@H](N)CCSC)CSCc2cccc(c2)CSC[C@@H](C(N)=O)NC1=O [GIP-242] (H-MYDWWPELCTLIC-NH2; linker 9-13 via mXylylene) | 10 to 79.4 | B (>80% intact after 4 hours) | C (≥50% intact after 4 hours) |  |  | 
CC[C@H](C)[C@@H]1NC(=O)[C@H](CC(C)C)NC(=O)C2(CCN(C(=O)CN3CCN(CC(=O)O)CCN(CC(=O)O)CCN(CC(=O)O)CC3)CC2)NC(=O)[C@@H](NC(=O)[C@@H](CC(C)C)NC(=O)[C@H](CCC(=O)O)NC(=O)[C@@H]2C[C@@H](O)CN2C(=O)[C@H](Cc2c[nH]c3ccc(Cl)cc23)NC(=O)[C@H](Cc2c[nH]c3ccccc23)NC(=O)[C@H](CC(=O)O)NC(=O)CN2CCC(NC(=O)CCOCCOCCOCCOCCOCCOCCOCCOCCOCCOCCOCCOCCOCCOCCOCCOCCOCCOCCOCCOCCOCCOCCOCCOCCOCCOCCOCCOCCOCCOCCOCCOCCOCCOCCOCCOCCOC)CC2)CSCc2cccc(n2)CSC[C@@H](C(=O)N[C@H](CCC(=O)NC[C@H](O)[C@@H](O)[C@H](O)[C@H](O)CO)C(N)=O)NC1=O [GIP-040, Me036PEG-APAc-Asp-Trp-5Clw-Hyp-Glu-leu-[Cys(2Lut)-Apc(DOTA)-Leu-Ile-Cys]-glu(AGLU)-NH2] |  |  |  |  | A (>80% intact after 24 hours) | 10 to 79.4
